Measured values from patent US20260184707A1, “PHARMACEUTICAL COMPOUNDS FOR THE TREATMENT OF COMPLEMENT MEDIATED DISORDERS” (ALEXION PHARMACEUTICALS, INC., priority 2022, published 2026).

Biological target: T1, Human complement C1s enzyme (Homo sapiens, UniProt P09871)
T1 construct: purified from human serum, Complement Technology, Inc; purchased Complement Technology, Inc; host or cells: human serum (plasma-derived native protein)
T1 sequence (P09871 438-688 limits assumed): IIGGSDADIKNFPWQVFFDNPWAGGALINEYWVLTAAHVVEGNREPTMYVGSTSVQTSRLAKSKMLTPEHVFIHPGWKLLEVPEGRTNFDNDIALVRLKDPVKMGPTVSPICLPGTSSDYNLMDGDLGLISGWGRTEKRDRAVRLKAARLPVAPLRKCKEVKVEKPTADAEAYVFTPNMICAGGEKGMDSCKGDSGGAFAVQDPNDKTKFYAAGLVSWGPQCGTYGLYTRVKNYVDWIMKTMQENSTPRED
T1 sequence (P09871 16-437 partner limits assumed): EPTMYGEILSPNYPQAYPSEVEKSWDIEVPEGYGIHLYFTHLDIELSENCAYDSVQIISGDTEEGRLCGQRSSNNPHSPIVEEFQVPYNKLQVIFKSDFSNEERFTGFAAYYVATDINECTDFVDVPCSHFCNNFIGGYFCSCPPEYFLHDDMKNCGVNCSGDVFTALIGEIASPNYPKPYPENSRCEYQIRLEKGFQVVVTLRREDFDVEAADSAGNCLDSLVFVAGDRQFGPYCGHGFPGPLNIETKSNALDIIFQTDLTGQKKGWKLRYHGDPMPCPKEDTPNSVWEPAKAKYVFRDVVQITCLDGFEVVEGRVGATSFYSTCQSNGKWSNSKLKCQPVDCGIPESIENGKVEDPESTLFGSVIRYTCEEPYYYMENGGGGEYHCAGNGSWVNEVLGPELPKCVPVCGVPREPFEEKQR
Assay: Human C1s enzyme assay
Type: biochemical
Conditions: human complement C1s enzyme 1.16 nM, substrate Z-L-Lys-SBzl, A405; read-out: IC50 (Stars)
Procedure, shortened: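 Serum-purified human C1s (1.16 nM final) preincubated 5 min at room temperature with compound in 50 mM Tris, 1 M NaCl, pH 7.5. Z-L-Lys-SBzl and DTNB added at 100 μM each; A405 recorded every 30 s. IC50 from nonlinear regression of reaction rates versus compound concentration.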

Row | IC50 | Structure (SMILES)
1 | < 100 nM | C[C@@H](Nc1cnc(-c2ccccc2F)n(CC(=O)NCc2cc3cnccc3[nH]2)c1=O)c1ccc2oc3c(F)cccc3c2c1 [Compound 318, (R)—N-((1H-Pyrrolo[3,2-c]pyridine-2-yl)methyl)-2-(5-((1-(6-fluorodibenzo[b,d]furan-2-yl)ethyl)amino)-2-(2-fluorophenyl)-6-oxopyrimidin-1(6H)-yl)acetamide]
2 | > 1000 nM | COc1ncc(N[C@H](C)c2ccc3oc4ccccc4c3c2)c(=O)n1CC(=O)NCc1cc2cnccc2[nH]1 [Compound 319, (R)—N-((1H-pyrrolo[3,2-c]pyridine-2-yl)methyl)-2-(5-((1-(dibenzo[b,d]furan-2-yl)ethyl)amino)-2-methoxy-6-oxopyrimidin-1(6H)-yl)acetamide]
3 | < 100 nM | C[C@@H](Nc1cnc(-c2ncco2)n(CC(=O)NCc2cc3cnccc3[nH]2)c1=O)c1ccc2oc3ccccc3c2c1 [Compound 320, (R)-N-((1H-pyrrolo[3,2-c]pyridin-2-yl)methyl)-2-(5-((1-(dibenzo[b,d]furan-2-yl)ethyl)-amino)-2-(oxazol-2-yl)-6-oxo-pyrimidin-1(6H)-yl)acetamide]
4 | < 100 nM | C[C@@H](Nc1cnc(-c2ccccc2F)n(CC(=O)NCc2cc3cnccc3[nH]2)c1=O)c1coc(-c2ccccc2)n1 [Compound 321, (R)—N-((1H-pyrrolo[3,2-c]pyridine-2-yl)methyl)-2-(2-(2-fluorophenyl)-6-oxo-5-((1-(2-phenyloxazol-4-yl)ethyl)amino)pyrimidin-1(6H)-yl)acetamide]
5 | < 100 nM | C[C@@H](Nc1ncc(-c2ccccc2F)n(CC(=O)NCc2cc3cnccc3[nH]2)c1=O)c1ccc2oc3ccccc3c2c1 [Compound 322, (R)-N-((1H-pyrrolo[3,2-c]pyridin-2-yl)methyl)-2-(3-((1-(dibenzo[b,d]furan-2-yl)ethyl)-amino)-6-(2-fluorophenyl)-2-oxopyrazin-1(2H)-yl)acetamide]
6 | < 100 nM | C[C@@H](Nc1cnc(-c2ccccn2)n(CC(=O)NCc2cc3cnccc3[nH]2)c1=O)c1ccc2oc3ccccc3c2c1 [Compound 323, (R)-N-((1H-pyrrolo[3,2-c]pyridin-2-yl)methyl)-2-(5-((1-(dibenzo[b,d]furan-2-yl)ethyl)-amino)-6-oxo-2-(pyridin-2-yl)-pyrimidin-1(6H)-yl)acetamide]
7 | 100 to 1000 nM | C[C@@H](Nc1cnc(C2CCCC2)n(CC(=O)NCc2cc3cnccc3[nH]2)c1=O)c1ccc2oc3ccccc3c2c1 [Compound 324, (R)-N-((1H-pyrrolo[3,2-c]pyr-idin-2-yl)methyl)-2-(2-cyclo-pentyl-5-((1-(dibenzo[b,d]furan-2-yl)ethyl)amino)-6-oxo-pyrimidin-1(6H)-yl)acetamide]
8 | < 100 nM | C[C@@H](Nc1cnc(C2=CCCCC2)n(CC(=O)NCc2cc3cnccc3[nH]2)c1=O)c1ccc2oc3ccccc3c2c1 [Compound 325, (R)-N-((1H-pyrrolo[3,2-c]pyr-idin-2-yl)methyl)-2-(2-(cyclo-hex-1-en-1-yl)-5-((1-(dibenzo [b,d]furan-2-yl)ethyl)amino)-6-oxopyrimidin-1(6H)-yl)acet-amide]
9 | < 100 nM | C[C@@H](Nc1cnc(-c2ccco2)n(CC(=O)NCc2cc3cnccc3[nH]2)c1=O)c1ccc2oc3ccccc3c2c1 [Compound 326, (R)-N-((1H-pyrrolo[3,2-c]pyridin-2-yl)methyl)-2-(5-((1-(dibenzo[b,d]furan-2-yl)ethyl)-amino)-2-(furan-2-yl)-6-oxo-pyrimidin-1(6H)-yl)acetamide]
10 | < 100 nM | C[C@@H](Nc1cnc(-c2cccs2)n(CC(=O)NCc2cc3cnccc3[nH]2)c1=O)c1ccc2oc3ccccc3c2c1 [Compound 327, (R)-N-((1H-pyrrolo[3,2-c]pyridin-2-yl)methyl)-2-(5-((1-(dibenzo[b,d]furan-2-yl)ethyl)-amino)-6-oxo-2-(thiophen-2-yl)pyrimidin-1(6H)-yl)acet-amide]
11 | < 100 nM | C[C@@H](Nc1cnc(-c2cnn(C)c2)n(CC(=O)NCc2cc3cnccc3[nH]2)c1=O)c1ccc2oc3ccccc3c2c1 [Compound 328, (R)-N-((1H-pyrrolo[3,2-c]pyridin-2-yl)methyl)-2-(5-((1-(dibenzo[b,d]furan-2-yl)ethyl)-amino)-2-(1-methyl-1H-pyr-azol-4-yl)-6-oxopyrimidin-1(6H)-yl)acetamide]
12 | 100 to 1000 nM | C[C@@H](Nc1nccn(CC(=O)NCc2cc3cnccc3[nH]2)c1=O)c1ccc2oc3ccccc3c2c1 [Compound 329, (R)-N-((1H-pyrrolo[3,2-c]pyridin-2-yl)methyl)-2-(3-((1-(dibenzo[b,d]furan-2-yl)ethyl)-amino)-2-oxopyrazin-1(2H)-yl)acetamide]
13 | < 100 nM | O=C(Cn1c(C2CC2)ncc(NCc2ccc3oc4ccccc4c3c2)c1=O)NCc1cc2cnccc2[nH]1 [Compound 330, N-((1H-pyrrolo[3,2-c]pyridin-2-yl)methyl)-2-(2-cyclopropyl-5-((dibenzo[b,d]furan-2-yl-methyl)amino)-6-oxopyrimi-din-1(6H)-yl)acetamide]
14 | > 1000 nM | CC(C)[C@@H](Nc1cnc(-c2ccccc2F)n(CC(=O)NCc2cc3cnccc3[nH]2)c1=O)c1ccc2oc3ccccc3c2c1 [Compound 332, (R)—N-((1H-pyrrolo[3,2-c]pyridine-2-yl)methyl)-2-(5-((1-(dibenzo[b,d]furan-2-yl)-2-methylpropyl)amino)-2-(2-fluorophenyl)-6-oxopyrimidin-1(6H)-yl)acetamide]
15 | < 100 nM | Cc1cn(CC(=O)NCc2cc3cnccc3[nH]2)c(=O)c(N[C@H](C)c2ccc3oc4ccccc4c3c2)n1 [Compound 333, (R)—N-((1H-pyrrolo[3,2-c]pyridine-2-yl)methyl)-2-(3-((1-(dibenzo[b,d]furan-2-yl)ethyl)amino)-5-methyl-2-oxopyrazin-1(2H)-yl)acetamide]
16 | < 100 nM | C[C@@H](Nc1cnc(-c2ccncc2)n(CC(=O)NCc2cc3cnccc3[nH]2)c1=O)c1ccc2oc3ccccc3c2c1 [Compound 334, (R)-N-((1H-pyrrolo[3,2-c]pyridin-2-yl)methyl)-2-(5-((1-(dibenzo[b,d]furan-2-yl)ethyl)-amino)-6-oxo-2-(pyridin-4-yl)-pyrimidin-1(6H)-yl)acetamide]
17 | < 100 nM | C[C@@H](Nc1cnc(-c2cccnc2)n(CC(=O)NCc2cc3cnccc3[nH]2)c1=O)c1ccc2oc3ccccc3c2c1 [Compound 335, (R)-N-((1H-pyrrolo[3,2-c]pyridin-2-yl)methyl)-2-(5-((1-(dibenzo[b,d]furan-2-yl)ethyl)-amino)-6-oxo-2-(pyridin-3-yl)-pyrimidin-1(6H)-yl)acetamide]
18 | < 100 nM | Cc1nc(-c2ccccc2)n(CC(=O)NCc2cc3cnccc3[nH]2)c(=O)c1N[C@H](C)c1ccc2oc3ccccc3c2c1 [Compound 336, (R)—N-((1H-pyrrolo[3,2-c]pyridin-2-yl)methyl)-2-(5-((1-(dibenzo[b,d]furan-2-yl)ethyl)amino)-4-methyl-6-oxo-2-phenylpyrimidin-1(6H)-yl)acetamide]
19 | < 100 nM | Cc1nc(-c2ccccc2)n(CC(=O)NCc2cc3cnccc3[nH]2)c(=O)c1NCc1ccc2oc3ccccc3c2c1 [Compound 337, N-((1H-pyrrolo[3,2-c]pyridin-2-yl)methyl)-2-(5-((dibenzo [b,d]furan-2-ylmethyl)amino)-4-methyl-6-oxo-2-phenylpyr-imidin-1(6H)-yl)acetamide]
20 | 100 to 1000 nM | C[C@@H](Nc1c[nH]c(=O)n(CC(=O)NCc2cc3cnccc3[nH]2)c1=O)c1ccc2oc3ccccc3c2c1 [Compound 338, (R)-N-((1H-pyrrolo[3,2-c]pyridin-2-yl)methyl)-2-(5-((1-(dibenzo[b,d]furan-2-yl)ethyl)-amino)-2,6-dioxo-3,6-dihydro-pyrimidin-1(2H)-yl)acetamide]
21 | < 100 nM | C[C@@H](Nc1cnc(-c2cscn2)n(CC(=O)NCc2cc3cnccc3[nH]2)c1=O)c1ccc2oc3ccccc3c2c1 [Compound 339, (R)-N-((1H-pyrrolo[3,2-c]pyridin-2-yl)methyl)-2-(5-((1-(dibenzo[b,d]furan-2-yl)ethyl)-amino)-6-oxo-2-(thiazol-4-yl)-pyrimidin-1(6H)-yl)acetamide]
22 | 100 to 1000 nM | C[C@@H](Nc1cnc(-c2nccs2)n(CC(=O)NCc2cc3cnccc3[nH]2)c1=O)c1ccc2oc3ccccc3c2c1 [Compound 340, (R)-N-((1H-pyrrolo[3,2-c]pyridin-2-yl)methyl)-2-(5-((1-(dibenzo[b,d]furan-2-yl)ethyl)-amino)-6-oxo-2-(thiazol-2-yl)-pyrimidin-1(6H)-yl)acetamide]
23 | 100 to 1000 nM | CC(C)c1ncc(N[C@H](C)c2ccc3oc4ccccc4c3c2)c(=O)n1CC(=O)NCc1cc2cnccc2[nH]1 [Compound 341, (R)—N-((1H-pyrrolo[3,2-c]pyridine-2-yl)methyl)-2-(5-((1-(dibenzo[b,d]furan-2-yl)ethyl)amino)-2-isopropyl-6-oxopyrimidin-1(6H)-yl)acetamide]
